The text below walks through data of patent publication US8816095B2, “Na channels, disease, and related assays and compositions” (Georgetown University, priority 2008, dated 2014).

Each structure is given as a SMILES string.

Assay [1] has as its system Na+ channel site 2 binding site. The assay can be described thus: [3H]-BTX assay, rat forebrain membranes. To be noted: ± S.E.M., n in brackets. As for the experimental part:
In order to determine if the hermitamides bind to the sodium channel, the natural products, their enantiomers, and the racemic mixture were tested for their ability to displace [^3H]-batrachatoxin. Batrachatoxin is a lipid-soluble neurotoxin that binds to site 2 of the sodium channel. This site is known to overlap with the local anesthetic binding […]. Ligands known to bind to […] of the sodium channel include anesthetics, anticonvulsants and antiarrthymics. As a control, phenyloin, a clinically-used sodium channel blocker that is known to displace [^3H]BTX was also included.
The assays were run at 10 μM and recorded as percent displacement of BTX.
Briefly, rat forebrain membranes (10 mg tissue/well) were incubated with [^3H]-BTX (30-60 Ci/mmol). […] The reaction was terminated by rapid vacuum filtration of the reaction contents onto glass fiber filters. Radioactivity trapped onto the filters was determined and compared with control values to ascertain any interactions of the test compound with the Na^+ channel site 2 binding site. Aconitine (1 μM) was used as a positive control (Sigma Aldrich, Inc., St. Louis, Mo.).

The target of another assay is T1, human Nav1.2 (Homo sapiens, UniProt Q99250).
T1 construct: host or cells: HEK
T1 sequence (Q99250 whole entry): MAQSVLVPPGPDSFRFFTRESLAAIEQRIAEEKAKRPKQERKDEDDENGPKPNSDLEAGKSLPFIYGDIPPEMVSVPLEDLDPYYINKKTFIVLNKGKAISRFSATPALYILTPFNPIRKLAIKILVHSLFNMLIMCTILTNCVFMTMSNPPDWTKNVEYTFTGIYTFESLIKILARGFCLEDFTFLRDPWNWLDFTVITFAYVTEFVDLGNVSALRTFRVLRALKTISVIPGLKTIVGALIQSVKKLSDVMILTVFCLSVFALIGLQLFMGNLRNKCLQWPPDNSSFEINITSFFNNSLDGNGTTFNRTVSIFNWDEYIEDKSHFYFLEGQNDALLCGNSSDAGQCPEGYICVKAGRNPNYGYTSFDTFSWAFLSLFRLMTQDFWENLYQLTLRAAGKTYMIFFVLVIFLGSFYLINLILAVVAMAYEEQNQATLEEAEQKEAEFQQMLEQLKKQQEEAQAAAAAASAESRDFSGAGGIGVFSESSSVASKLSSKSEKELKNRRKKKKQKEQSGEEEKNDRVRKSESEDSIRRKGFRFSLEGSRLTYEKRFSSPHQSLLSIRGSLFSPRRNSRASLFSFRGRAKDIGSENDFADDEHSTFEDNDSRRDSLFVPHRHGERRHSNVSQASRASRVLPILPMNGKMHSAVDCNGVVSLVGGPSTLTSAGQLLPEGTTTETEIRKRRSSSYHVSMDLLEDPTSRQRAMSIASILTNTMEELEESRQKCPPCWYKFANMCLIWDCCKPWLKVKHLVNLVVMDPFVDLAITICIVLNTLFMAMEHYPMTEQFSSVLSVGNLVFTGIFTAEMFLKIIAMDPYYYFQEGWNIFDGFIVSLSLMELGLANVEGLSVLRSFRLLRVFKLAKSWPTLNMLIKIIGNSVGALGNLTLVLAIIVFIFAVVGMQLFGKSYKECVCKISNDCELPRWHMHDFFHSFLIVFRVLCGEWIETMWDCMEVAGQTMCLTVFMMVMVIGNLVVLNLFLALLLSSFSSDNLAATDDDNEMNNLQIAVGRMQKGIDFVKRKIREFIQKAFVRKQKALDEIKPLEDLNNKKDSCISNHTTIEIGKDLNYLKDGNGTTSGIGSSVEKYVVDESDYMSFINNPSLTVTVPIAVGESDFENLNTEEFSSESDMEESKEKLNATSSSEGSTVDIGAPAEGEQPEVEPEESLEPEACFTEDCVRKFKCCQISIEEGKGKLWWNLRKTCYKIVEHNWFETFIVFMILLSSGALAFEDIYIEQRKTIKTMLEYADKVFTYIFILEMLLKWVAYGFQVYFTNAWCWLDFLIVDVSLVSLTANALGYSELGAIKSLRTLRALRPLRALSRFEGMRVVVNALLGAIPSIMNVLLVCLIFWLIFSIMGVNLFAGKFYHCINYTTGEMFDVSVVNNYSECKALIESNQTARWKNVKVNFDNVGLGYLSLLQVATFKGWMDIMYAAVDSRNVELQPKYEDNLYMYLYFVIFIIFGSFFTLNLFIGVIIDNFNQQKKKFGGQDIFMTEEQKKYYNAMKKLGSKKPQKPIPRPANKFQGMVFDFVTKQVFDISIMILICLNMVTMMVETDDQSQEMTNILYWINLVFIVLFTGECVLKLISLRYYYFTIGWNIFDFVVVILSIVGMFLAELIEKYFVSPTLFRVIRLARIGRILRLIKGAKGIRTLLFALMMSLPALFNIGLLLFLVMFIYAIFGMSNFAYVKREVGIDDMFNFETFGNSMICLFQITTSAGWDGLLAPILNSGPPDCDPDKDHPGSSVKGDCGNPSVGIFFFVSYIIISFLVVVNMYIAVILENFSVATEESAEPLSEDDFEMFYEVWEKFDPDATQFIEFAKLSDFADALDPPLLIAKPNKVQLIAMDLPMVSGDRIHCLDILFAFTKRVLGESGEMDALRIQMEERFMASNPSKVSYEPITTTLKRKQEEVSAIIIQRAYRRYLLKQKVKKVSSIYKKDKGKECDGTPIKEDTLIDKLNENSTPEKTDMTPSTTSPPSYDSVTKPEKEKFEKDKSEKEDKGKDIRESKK
Put plainly: Sodium channel electrophysiology of hermitamides (patch clamp). Conditions: HEK human Nav1.2. It is filed as cell-based. As for the experimental part:
To test whether these compounds were functionally active as sodium channel blockers, the effects of the hermitamides were tested on human embryonic kidney cells (HEK) cells stably expressing human Nav1.2 using the […].
Human embryonic kidney cells (HEK) cells stably expressing human Nav1.2 were a kind gift from Dr. H. A. Hartmann (University of Baltimore, Md., USA) and were grown in DMEM/F12 media (Invitrogen, Corp, CA, USA) supplemented with 10% fetal bovine serum, penicillin (100 U/ml), streptomycin (100 μg/ml) and G418 (500 μg/ml; Sigma, Mo., USA). Cells were grown in a humidified atmosphere of 5% CO2 and 95% air at 37° C.
Sodium currents were recorded using the whole-cell configuration of the patch clamp recording technique with an Axopatch 200 amplifier (Axon Instruments, Foster City, Calif.). All voltage protocols were applied using pCLAMP 9 software (Axon, USA) and a Digidata 1322A (Axon, USA). Currents were amplified and low pass filtered (2 kHz) and sampled at 33 kHz. Borosilicate glass pipettes were pulled using a Brown-Flaming puller (model P87, Sutter Instruments Co, Novato, Calif.) and heat polished to produce electrode resistances of […] when filled with the following electrode solution (in mM); CsCl 130, MgCl2 1, MgATP 5, BAPTA 10, HEPES 5 (pH adjusted to 7.4 with CsOH). Cells were plated on glass coverslips and superfused with solution containing the following composition; (in mM) NaCl 130, KCl 4, CaCl2 1, MgCl2 5, HEPES 5, and glucose 5 (pH adjusted to 7.4 with NaOH).
(S)-Hermitamide B was prepared as 100 mM stock solutions in DMSO and diluted to the desired concentration in perfusion solution. The maximum DMSO concentration used was 0.1% and had no effect on current amplitude. All experiments were performed at room temperature (20-22° C.). After establishing whole-cell, a minimum series resistance compensation of 75% was applied. Sodium currents were elicited by a depolarizing step from a holding potential of −100 mV to +10 mV for a duration of 25 ms at 15 s intervals. (S)-Hermitamide B was applied after a 3 min control period and continued until a steady state current amplitude was observed. All data represent percentage mean block±standard error of the mean (S.E.M.).

Another assay has as its system site 2 of the VGSC. The assay can be described thus: [3H]-BTX-B displacement assay at site 2. It is filed as binding, rat. To be noted: Screen at 40 μM, 2 replicates, referenced to Aconitine.
The test system of the next assay is CWR22rv-1 cells. Put plainly: CWR22rv-1 prostate cancer cell death (propidium iodide, FACS). Format: cell-based, human. To be noted: 25 μM, after 24 h. How it is done:
CWR22Rv1 cells (ATCC, Manassas, Va.) were seeded in 6 well tissue culture plate at density of 300,000 cells/well and maintained in RPMI 1640 (Mediatech, Herndon, Va.) containing 10% fetal bovine serum, 2.5 mM L-glutamine, and penicillin-streptomycin (100 IU/ml and 100 μg/ml, respectively) at 37° C. with 5% CO2. Cells were then switched to serum free RPMI media overnight prior to drug treatment. Compounds were dissolved in 100% dimethylsulfoxide (DMSO) and diluted to the desired concentrations in serum free RPMI. Cells were treated with indicated drug concentrations (in triplicate per treatment point) for 24, 48, 72 hour. After treatment, cells were harvested by trypsinization and fixed in 70% ethanol. The fixed cells were then stained with propidium iodide (50 μg/ml) after treatment with RNase (5 μg/ml). The stained cells were analyzed for DNA content using FACSsort (Becton Dickinson). Cell cycle fractions were quantified with Cell Quest (Becton Dickinson) or ModFit LT (Verity Software House).

Regarding `CCCCCCC[C@@H](C/C=C/CCC(=O)NCCc1c[nH]c2ccccc12)OC` [(S)-hermitamide B, 2-(1H-indol-3-yl)-ethyl (7S,4E)-Methoxytetradecenamide], the “% [3H]-BTX Displacement At 10 μM” value in assay [1] is reported as 29.02 ± 0.29 (2) %. Moreover, on human Nav1.2, the “Patch-clamp percentage block, 1 μM” value came to 80% and the “Patch-clamp percentage block, 10 μM” value was 100 (3) %. Also, the “Patch-clamp percentage block, 1 μM” value at human Nav1.2 (listed as Hermitamide B) is ~80%.
Take `C=CCCCCCC1(c2cccc(Cl)c2)NC(=O)NC1=O` (stereo not drawn) [Compound 16]: the “[3H]-BTX-B Binding Data, Displacement %” value in the assay on site 2 of the VGSC stood at 79%.
With `CCCCCCC[C@](O)(C(N)=O)c1cccc(Cl)c1` [(R)-(−)-2-(3-chloro-phenyl)-2-hydroxy-nonanoic acid amide], the “cell death of CWR22rv-1 cells” value in the assay with CWR22rv-1 cells was “induces cell death”.
For the compound `O=C1NC(=O)C(CCCCCC2CC2)(c2cccc(Cl)c2)N1` (stereo not drawn) [Compound 20], the “[3H]-BTX-B Binding Data, Displacement %” value in the assay with site 2 of the VGSC was determined as 8%.
In the case of `CCCCCCCC(C/C=C/CCC(=O)O)OC` (racemic) [rac-lyngbic acid], the “% [3H]-BTX Displacement At 10 μM” value in assay [1] was 7.35 ± 2.88 (2) %. In addition, the “Patch-clamp percentage block, 100 μM” value on human Nav1.2 (100 μM) worked out at 55.6%.
On to `CCCCCCC[C@@H](C/C=C/CCC(=O)NCCc1ccccc1)OC` [(S)-hermitamide A, Phenethyl (7S,4E)-methoxytetradecenamide], for which the “% [3H]-BTX Displacement At 10 μM” value in assay [1] is 15.89 ± 3.06 (2) %. Further, at human Nav1.2, the “Patch-clamp percentage block, 1 μM” value is listed as ~50% and the “Patch-clamp percentage block, 10 μM” value is on record as 94.4 ± 1.3 (4) %.
Regarding `CCCCCCC[C@@H](C/C=C/CCC(=O)O)OC` [(S)-lyngbic acid, (7S,4E)-Methoxytetradecenoic Acid], the “% [3H]-BTX Displacement At 10 μM” value in assay [1] is on record as 7.77 ± 2.20 (2) %. The “Patch-clamp percentage block, 10 μM” value on human Nav1.2 was 44.4 ± 0.3 (4) %.
As to `CCCCCCC[C@H](C/C=C/CCC(=O)NCCc1c[nH]c2ccccc12)OC` [(R)-hermitamide B, 2-(1H-indol-3-yl)-ethyl (7R,4E)-Methoxytetradecenamide], the “% [3H]-BTX Displacement At 10 μM” value in assay [1] is on record as 20.31 ± 5.82 (2) %. In addition, at human Nav1.2, the “Patch-clamp percentage block, 100 nM” value turned out to be 28.8% and the “Patch-clamp percentage block, 1 μM” value is 93.6 (1) %.
Regarding `O=C1NC(=O)C(CCCCCC2CO2)(c2cccc(Cl)c2)N1` (stereo not drawn) [Compound 18], the “[3H]-BTX-B Binding Data, Displacement %” value in the assay with site 2 of the VGSC amounted to 28%.
As to `CCCCCCC[C@@H](C/C=C/CCC(=O)NCCc1ccccc1)OC` (racemic) [rac-hermitamide A], the “% [3H]-BTX Displacement At 10 μM” value in assay [1] is listed as 15.71 ± 0.14 (2) %. Besides, on human Nav1.2, the “Patch-clamp percentage block, 1 μM” value is listed as 49.7 ± 3.8 (4) % and the “Patch-clamp percentage block, 10 μM” value is recorded as 90.2 ± 2.5 (3) %.
For `C=CCCCCCC1(c2cccc(Cl)c2)NC(=O)N(Cc2ccccc2)C1=O` (stereo not drawn) [Compound 17], the “[3H]-BTX-B Binding Data, Displacement %” value with site 2 of the VGSC was found to be 23%.
Same read-out and setting: under `C#C/C(=C\CCCCCC)c1cccc(Cl)c1` [Compound 13] stands 32%.
For the compound `CCCCCCC[C@H](C/C=C/CCC(=O)NCCc1ccccc1)OC` [(R)-hermitamide A, Phenethyl (7R,4E)-methoxytetradecenamide], the “% [3H]-BTX Displacement At 10 μM” value in assay [1] is 13.79 ± 1.28 (2) %. Further, the “Patch-clamp percentage block, 1 μM” value on human Nav1.2 is on record as 58.7 ± 1.3 (4) %.
As for `CCCCCCC[C@@H](C/C=C/CCC(=O)NCCc1c[nH]c2ccccc12)OC` (racemic) [rac-hermitamide B], the “% [3H]-BTX Displacement At 10 μM” value in assay [1] was 36.05 ± 0.77 (2) %. On human Nav1.2, the “Patch-clamp percentage block, 100 nM” value is listed as 24.3%; the “Patch-clamp percentage block, 1 μM” value is 88.4 ± 2.9 (40%; the “Patch-clamp percentage block, 10 μM” value is 100 (1) %.
As to `C#CC(O)(CCCCCCC)c1cccc(Cl)c1` (stereo not drawn) [Compound 12], the “[3H]-BTX-B Binding Data, Displacement %” value in the assay on site 2 of the VGSC was 78%.
With `CCCCCCC[C@H](C/C=C/CCC(=O)O)OC` [(R)-lyngbic acid, (7R,4E)-Methoxytetradecenoic Acid], the “% [3H]-BTX Displacement At 10 μM” value in assay [1] was 11.91 ± 0.16 (2) %. For the same compound, at human Nav1.2, the “Patch-clamp percentage block, 100 nM” value turned out to be 11.9% and the “Patch-clamp percentage block, 1 μM” value is listed as 52.5 ± 3.9 (4) %.
